Test results from ChEMBL document CHEMBL5252609, “Design, synthesis, and antitumor evaluation of morpholine substituted bisnaphthalimides as DNA targeting agents” (Bioorg Med Chem Lett, 2023).
The source made the active and inactive calls. The calls are words filed in the database; no cut-off is given here.

Experiments:
A2780 = experiment: Antiproliferative activity against human A2780 cells assessed as cell growth inhibition by MTT assay; assay type: functional, cell-based
MGC-803 [1] = experiment: Antitumor activity against human MGC-803 cells xenografted in nude mouse assessed as reduction in tumor weight at 8 mg/kg, ip administrated every other day for 21 days relative to control; assay type: functional; set-up: scale not given: the % may be the effect or the level left; details: time 21 day
[2] = Toxicity in nude mouse xenografted with human MGC-803 cells assessed as effect on body weight at 4 mg/kg, ip administrated every other day for 21 days; assay type: organism-based; details: in vivo, 504 h, time 21 day
MGC-803 [3] = experiment: Toxicity in nude mouse xenografted with human MGC-803 cells assessed as morphological changes in liver at 8 mg/kg, ip administrated every other day for 21 days; assay type: functional, organism-based; details: time 21.0 day
Homo sapiens = organism: Homo sapiens; experiment: Binding affinity to pBR322 DNA (unknown origin) assessed as DNA intercalation at 20 to 100 uM by electrophoresis assay; details: dose 20-100 µM
CNE-2 [4] = experiment: Induction of cell cycle arrest in human CNE-2 cells assessed as accumulation of cells at G2 phase at 0.5 uM measured after 48 hrs by flow cytometry analysis (Rvb= 6.99%); assay type: functional
CNE-2 [5] = experiment: Induction of cell cycle arrest in human CNE-2 cells assessed as accumulation of cells at G1 phase at 1 uM measured after 48 hrs by flow cytometry analysis (Rvb= 73.18%); assay type: functional
CNE-2 [6] = experiment: Induction of cell cycle arrest in human CNE-2 cells assessed as accumulation of cells at S phase at 1 uM measured after 48 hrs by flow cytometry analysis (Rvb= 19.83%); assay type: functional
CNE-2 [7] = experiment: Induction of cell cycle arrest in human CNE-2 cells assessed as accumulation of cells at G1 phase at 2 uM measured after 48 hrs by flow cytometry analysis (Rvb= 73.18%); assay type: functional
CNE-2 [8] = experiment: Induction of apoptosis in human CNE-2 cells assessed as viable cells at 0.5 uM measured after 24 hrs by annexin-V-FITC and PI staining based flow cytometry analysis (reference value: 94.8%); assay type: functional; details: read-out: Activity
CNE-2 [9] = experiment: Induction of apoptosis in human CNE-2 cells assessed as late apoptotic cells at 2 uM measured after 24 hrs by annexin-V-FITC and PI staining based flow cytometry analysis (reference value: 3.79%); assay type: functional
[10] = Toxicity in nude mouse xenografted with human MGC-803 cells assessed as effect on body weight at 4 mg/kg, ip administrated every other day measured at 9 to 14 days; assay type: organism-based; details: in vivo, time 9-14 day
MGC-803 [11] = experiment: Toxicity in nude mouse xenografted with human MGC-803 cells assessed as morphological changes in heart at 8 mg/kg, ip administrated every other day for 21 days; assay type: functional, organism-based; details: time 21.0 day
MGC-803 [12] = experiment: Toxicity in nude mouse xenografted with human MGC-803 cells assessed as morphological changes in spleen at 8 mg/kg, ip administrated every other day for 21 days; assay type: functional, organism-based; details: time 21.0 day
MGC-803 [13] = experiment: Toxicity in nude mouse xenografted with human MGC-803 cells assessed as morphological changes in lung at 8 mg/kg, ip administrated every other day for 21 days; assay type: functional, organism-based; details: time 21.0 day
MGC-803 [14] = experiment: Toxicity in nude mouse xenografted with human MGC-803 cells assessed as morphological changes in kidney at 8 mg/kg, ip administrated every other day for 21 days; assay type: functional, organism-based; details: time 21.0 day
CNE-2 [15] = experiment: Induction of cell cycle arrest in human CNE-2 cells assessed as accumulation of cells at S phase measured after 48 hrs by flow cytometry analysis; assay type: functional, cell-based; details: dose 0.5-2 µM

IC50 (A2780) [µM]	Activity (Homo sapiens)	SMILES	Activity (MGC-803 [1]) [%]	Activity [2]	Activity (MGC-803 [3])	Activity (CNE-2 [4]) [%]	Activity (CNE-2 [5]) [%]	Activity (CNE-2 [6]) [%]	Activity (CNE-2 [7]) [%]	viability at 0.5 µM (CNE-2 [8]) [%]	Activity (CNE-2 [9]) [%]	Activity [10]	Activity (MGC-803 [11])	Activity (MGC-803 [12])	Activity (MGC-803 [13])	Activity (MGC-803 [14])	Activity (CNE-2 [15])
4.81	Active	CN(C)CCN1C(=O)c2cccc3c(N4CCOCC4)c([N+](=O)[O-])cc(c23)C1=O	46.9	Toxic	Toxic	7.03	69.25	18.12	38.9	84	9.2						
0.62	Active	O=C1c2cccc3c(N4CCOCC4)c([N+](=O)[O-])cc(c23)C(=O)N1CCNCCN1C(=O)c2cccc3c(N4CCOCC4)c([N+](=O)[O-])cc(c23)C1=O	46		Toxic	1.55	66.18	31.13	39.09	82.6	13.4	Non-Toxic	Not toxic	Not toxic	Not toxic	Not toxic	Dose-Dependent Effect
